Columns and labels:
rat PTH1R = rat PTH1R (Rattus norvegicus (Rat), UniProt P25961); assay: In vitro cAMP signaling activity via the rat PTH1R (LLC-PK46_RATO_PTH1R cells); format: cell-based; conditions: LLC-PK46_RATO_PTH1R cells overexpressing rat PTH1R; for EC20: 20% cAMP signaling activity; for EC50: 50% cAMP signaling activity
From the text: Measurement of the Compounds' In Vitro cAMP Signaling Activity Via the Rat PTH1R
Instead of HKRK-B7 cells, LLC-PK46_RATO_PTH1R cells overexpressing rat PTH1R, which were established at Chugai Pharmaceutical, were used to take measurements in a similar manner to Test Example 1.

TPTX rat model = assay: Calcemic action in the TPTX rat model; format: in vivo; conditions: TPTX rats, oral 30 mg/kg; for change of serum Ca concentration from the Pre-value: up to 24 hours after administration; for significance of serum Ca change compared to Comparative Examples 1 and 2: p<0.05
Experimental: Calcemic Action in the TPTX Rat Model
Four-week old female Crl:CD(SD) rats were obtained from Charles River Japan (Atsugi Breeding Center), and were acclimated to standard laboratory conditions of 20-26° C. and 35-75% humidity for one week. The rats were given tap water and were fed ad libitum with standard rodent chow (CE-2) (CLEA Japan, Inc.) containing 1.1% calcium, 1.0% phosphoric acid, and 250 IU/100 g of vitamin D3.
TPTX was performed on five-week old rats. Some of the individuals were subjected to sham operation (Sham). Individuals whose serum Ca concentration was less than 8 mg/dL on four days after the operation were selected for use as TPTX rats. On five days after the operation, the rats were assigned to eight TPTX groups and one Sham group (n=5, each group) based on their body weight and serum Ca concentration measured on four days after the operation. The solvent alone was orally administered to the Sham group and the TPTX-Vehicle group at a volume of 10 mL/kg. Each test article was orally administered individually to each TPTX test article group by dissolving it in a solvent at a dose of 30 mg/10 mL/kg. The solvent composition was 10% dimethylsulfoxide (Wako Pure Chemical Industries, Ltd.), 10% Cremophor EL (Sigma-Aldrich Japan LLC), 20% hydroxypropyl-β-cyclodextrin (Nihon Shokuhin Kako Co., Ltd.), glycine (Wako Pure Chemical Industries, Ltd.); and the pH was adjusted to 10. Immediately before administration of each sample, Pre-blood collection was performed, and blood collection was carried out at 2, 6, 10, and 24 hours after administration to measure the serum Ca concentration. Each blood collection was carried out from the jugular vein under isoflurane inhalation anesthesia.
Serum Ca measurement: Serum obtained by centrifugation from the collected blood was measured by using an automatic analyzer TBA-120FR (Toshiba Medical Systems Corporation).
For statistical analysis of the animal studies, data are shown as mean±standard error (SE). Statistical analysis were performed by unpaired test of the SAS Preclinical Package (Ver. 5.00.010720, SAS Institute Japan, Tokyo, Japan).

human PTH1R = human PTH1R (Homo sapiens (Human), UniProt Q03431); assay: In vitro cAMP signal activity via the human PTH1R (HKRK-B7 cells); format: cell-based; conditions: 100 nM human PTH(1-34) = 100%; for EC20: concentration giving 20% cAMP signaling activity; for EC50: concentration giving 50% cAMP signaling activity
Experimental: Measurement of In Vitro cAMP Signal Activity of Compounds Via the Human PTH1R
Human PTH(1-34) and calcitonin were purchased from Peptide Institute, Inc. (Osaka, Japan), dissolved in 10 mM acetic acid to 1 mM and stored in a −80° C. freezer.
Cells were cultured in Dulbecco's modified Eagle's medium (DMEM) supplemented with 10% fetal bovine serum (Hyclone), 100 units/ml penicillin G and 100 μg/ml streptomycin sulfate (Invitrogen Corp) at 37° C. in a humidified atmosphere containing 5% CO2.
cAMP signal transduction analysis utilized LLC-PK1 cells not expressing the PTH1R, and HKRK-B7 cells, that is, LLC-PK1 cells overexpressing the human PTH1R at 9.5×10^5 receptors/cell (Takasu et al., J. Bone. Miner. Res. 14:11-20, 1999).
HKRK-B7 or LLC-PK1 cells were seeded into a 96-well plate at 1×10^5 cells/well and incubated overnight. On the following day, 50 μl of cAMP assay buffer (DMEM, 2 mM IBMX, 0.2 mg/ml bovine serum albumin, 35 mM Hepes-NaOH, pH 7.4) containing human PTH(1-34) or each compound was added and the plate was placed in a 37° C. incubator. The cells were incubated for 20 minutes. After removing the medium, the cells were washed with 100 μl of cAMP assay buffer once. The plate was placed on dry ice powder to freeze the cells and then removed from the dry ice. The cells were lysed with 40 μl of 50 mM HCl and frozen again on dry ice. The amount of intracellular cAMP produced was measured using a commercially available cAMP EIA kit (Biotrack cAMP EIA system, GE health care).
Analyses were performed using a variable gradient S-shaped dose-response curve equation.

[1] = Metabolic stability using rat hepatocyte; format: in vitro ADME; conditions: for hepatocyte CLint at 1 μM: rat (SD, female) hepatocytes 1×10^6 cells/mL, compound 1 μM, 37° C., read-out: Clearance; for rat hepatocyte metabolic stability compared to Comparative Examples 1, 2, 3, 5, and 6: rat hepatocytes
Experimental: Examination of Metabolic Stability Using Rat Hepatocyte
Liver cells were prepared from the liver of rats (SD, female) by a collagenase perfusion method. A compound of the Examples or a Comparative Example was added, and this was incubated at 37° C. for a specified amount of time, followed by addition of a reaction-stopping solution. The concentration of the parent compound at each reaction time was measured using LC/MS/MS, and inherent clearance (μL/10^6 cells/min) was calculated from the slope of the reaction time versus residual rate.
Cell concentration: 1×10^6 cells/mL
(§1) Compound concentration: 1 μM
Medium: Williams' medium E
Reaction-stopping solution: acetonitrile/2-propanol (4/6, v/v)

[2] = Metabolic stability using human liver microsomes; format: in vitro ADME; conditions: pH 7.4; human liver microsomes 0.5 mg/mL, compound 1 μM, NADPH 1 mM, 37° C.; read-out: Clearance
Experimental: Examination of Metabolic Stability Using Human Liver Microsomes
In 0.1 M phosphate buffer (pH7.4), human liver microsomes were incubated with a compound or a comparative example in the coexistence of NADPH at 37° C. for a specified amount of time. The concentration of the parent compound at each reaction time was measured using LC/MS/MS, and inherent clearance (μL/min/mg protein) was calculated from the slope of the reaction time versus residual rate.
as §1
Reaction time: 0, 5, 15, and 30 minutes

Sequence of rat PTH1R (P25961 27-591): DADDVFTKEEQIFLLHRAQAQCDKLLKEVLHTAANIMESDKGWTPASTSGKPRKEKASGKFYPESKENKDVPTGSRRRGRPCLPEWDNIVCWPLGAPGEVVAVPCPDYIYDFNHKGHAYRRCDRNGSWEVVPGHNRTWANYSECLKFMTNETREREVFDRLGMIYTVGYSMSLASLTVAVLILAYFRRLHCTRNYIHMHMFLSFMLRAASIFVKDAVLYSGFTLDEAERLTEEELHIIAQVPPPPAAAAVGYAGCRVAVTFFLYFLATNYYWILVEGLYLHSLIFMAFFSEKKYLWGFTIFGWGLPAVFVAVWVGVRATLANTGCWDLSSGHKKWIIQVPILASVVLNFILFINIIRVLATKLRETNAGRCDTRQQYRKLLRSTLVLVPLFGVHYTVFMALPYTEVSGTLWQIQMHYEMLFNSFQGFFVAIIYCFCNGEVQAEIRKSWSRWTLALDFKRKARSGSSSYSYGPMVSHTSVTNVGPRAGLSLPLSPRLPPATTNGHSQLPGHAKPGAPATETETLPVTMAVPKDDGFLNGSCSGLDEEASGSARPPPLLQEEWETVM
Sequence of human PTH1R (Q03431 27-593): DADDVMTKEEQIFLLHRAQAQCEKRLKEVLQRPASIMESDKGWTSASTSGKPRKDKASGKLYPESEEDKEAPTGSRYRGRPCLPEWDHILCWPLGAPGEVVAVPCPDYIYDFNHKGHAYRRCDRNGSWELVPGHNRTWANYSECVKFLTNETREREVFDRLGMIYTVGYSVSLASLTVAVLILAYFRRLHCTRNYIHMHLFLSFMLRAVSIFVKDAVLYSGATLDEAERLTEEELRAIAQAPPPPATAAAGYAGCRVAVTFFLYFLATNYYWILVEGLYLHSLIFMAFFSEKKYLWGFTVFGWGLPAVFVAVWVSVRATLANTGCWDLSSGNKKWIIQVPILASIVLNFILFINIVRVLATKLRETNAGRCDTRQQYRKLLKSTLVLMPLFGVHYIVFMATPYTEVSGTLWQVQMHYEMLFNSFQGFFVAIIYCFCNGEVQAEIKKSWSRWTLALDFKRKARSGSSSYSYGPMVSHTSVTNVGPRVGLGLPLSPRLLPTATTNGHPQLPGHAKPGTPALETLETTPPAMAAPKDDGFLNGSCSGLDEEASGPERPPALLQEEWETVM

Cc1cc(N2C(=O)CNC2=O)ccc1CCS(=O)(=O)N1CCC2(CC1)N=C(c1cccc(OC(F)(F)F)c1)NC2=O [Comparative Example 1, reference compound]
EC20 (rat PTH1R): 0.8 µM | EC50 (rat PTH1R): 2300 nM | achievement of therapeutic target range of serum Ca concentration of 7.6 to 8.8 mg/dL (TPTX rat model): could not be achieved | change of serum Ca concentration from the Pre-value (TPTX rat model): smaller positive changes from the Pre-value | EC20 (human PTH1R): 1.5 µM | EC50 (human PTH1R): 4.8 µM | hepatocyte CLint at 1 μM [1]: 5.8 µL/min/1e6 cells | microsomal CLint at 1 μM [2]: 84 µL/min/mg

Cc1cc(N2C(=O)NC(=O)C2(C)C)cc(C)c1CCS(=O)(=O)N1CCC2(CC1)N=C(c1cccc(C(F)(F)F)c1)NC2=O [Compound 6, 1-(3,5-dimethyl-4-(2-((4-oxo-2-(3-(trifluoromethyl)phenyl)-1,3,8-triazaspiro[4.5]deca-1-en-8-yl)sulfonyl)ethyl)phenyl)-5,5-dimethylimidazolidine-2,4-dione]
achievement of therapeutic target range of serum Ca concentration of 7.6 to 8.8 mg/dL (TPTX rat model): achieved the therapeutic target range | change of serum Ca concentration from the Pre-value (TPTX rat model): large positive changes from the Pre-value | EC20 (human PTH1R): 2.0 µM | EC50 (human PTH1R): 9 µM | hepatocyte CLint at 1 μM [1]: 1.4 µL/min/1e6 cells | microsomal CLint at 1 μM [2]: 29 µL/min/mg

Cc1cc(N2C(=O)NC(=O)C2(C)C)cc(C)c1CCS(=O)(=O)N1CCC2(CC1)N=C(c1ccc(OC(F)(F)F)cc1)NC2=O [Compound 7, 1-(3,5-dimethyl-4-(2-((4-oxo-2-(4-(trifluoromethoxy)phenyl)-1,3,8-triazaspiro[4.5]deca-1-en-8-yl)sulfonyl)ethyl)phenyl)-5,5-dimethylimidazolidine-2,4-dione]
EC20 (rat PTH1R): 0.5 µM | EC50 (rat PTH1R): 2400 nM | achievement of therapeutic target range of serum Ca concentration of 7.6 to 8.8 mg/dL (TPTX rat model): achieved the therapeutic target range | change of serum Ca concentration from the Pre-value (TPTX rat model): large positive changes from the Pre-value | significance of serum Ca change compared to Comparative Examples 1 and 2 (TPTX rat model): statistically significant | EC20 (human PTH1R): 1.1 µM | EC50 (human PTH1R): 4.1 µM | hepatocyte CLint at 1 μM [1]: 0.9 µL/min/1e6 cells | rat hepatocyte metabolic stability compared to Comparative Examples 1, 2, 3, 5, and 6 [1]: increased | microsomal CLint at 1 μM [2]: 30 µL/min/mg

Cc1cc(N2C(=O)NC(=O)C23CCCC3)cc(C)c1CCS(=O)(=O)N1CCC2(CC1)N=C(c1ccc(OC(F)(F)F)cc1)NC2=O [Compound 8, 1-(3,5-dimethyl-4-(2-((4-oxo-2-(4-(trifluoromethoxy)phenyl)-1,3,8-triazaspiro[4.5]deca-1-en-8-yl)sulfonyl)ethyl)phenyl)-1,3-diazaspiro[4.4]nonane-2,4-dione]
EC20 (rat PTH1R): 0.4 µM | EC50 (rat PTH1R): 1900 nM | achievement of therapeutic target range of serum Ca concentration of 7.6 to 8.8 mg/dL (TPTX rat model): achieved the therapeutic target range | change of serum Ca concentration from the Pre-value (TPTX rat model): large positive changes from the Pre-value | significance of serum Ca change compared to Comparative Examples 1 and 2 (TPTX rat model): statistically significant | hepatocyte CLint at 1 μM [1]: 3 µL/min/1e6 cells | rat hepatocyte metabolic stability compared to Comparative Examples 1, 2, 3, 5, and 6 [1]: increased | microsomal CLint at 1 μM [2]: 35 µL/min/mg

Cc1cc(N2C(=O)NC(=O)C23COC3)cc(C)c1CCS(=O)(=O)N1CCC2(CC1)N=C(c1ccc(OC(F)(F)F)cc1)NC2=O [Compound 10, 5-(3,5-dimethyl-4-(2-((4-oxo-2-(4-(trifluoromethoxy)phenyl)-1,3,8-triazaspiro[4.5]deca-1-en-8-yl)sulfonyl)ethyl)phenyl)-2-oxa-5,7-diazaspiro[3.4]octane-6,8-dione]
EC20 (rat PTH1R): 3.0 µM | EC50 (rat PTH1R): 12000 nM | EC20 (human PTH1R): 5.0 µM | EC50 (human PTH1R): 21 µM | hepatocyte CLint at 1 μM [1]: 0.3 µL/min/1e6 cells | rat hepatocyte metabolic stability compared to Comparative Examples 1, 2, 3, 5, and 6 [1]: increased | microsomal CLint at 1 μM [2]: 29 µL/min/mg

Cc1cc(N2C(=O)NC(=O)C23CC3)cc(C)c1CCS(=O)(=O)N1CCC2(CC1)N=C(c1ccc(OC(F)(F)F)cc1)NC2=O [Compound 11, 4-(3,5-dimethyl-4-(2-((4-oxo-2-(4-(trifluoromethoxy)phenyl)-1,3,8-triazaspiro[4.5]deca-1-en-8-yl)sulfonyl)ethyl)phenyl)-4,6-diazaspiro[2.4]heptane-5,7-dione]
EC20 (rat PTH1R): 0.8 µM | EC50 (rat PTH1R): 3200 nM | EC20 (human PTH1R): 1.5 µM | EC50 (human PTH1R): 11 µM | rat hepatocyte metabolic stability compared to Comparative Examples 1, 2, 3, 5, and 6 [1]: increased | microsomal CLint at 1 μM [2]: 19 µL/min/mg
